Assay results reported in patent publication US7060722B2, “Proline derivatives and use thereof as drugs” (Mitsubishi Pharma Corporation, priority 2000, dated 2006).
Where a name gives a salt, the structure may show the parent alone.

Legend:
Human plasma DPP-IV = molecular target: T1, Human plasma DPP-IV (Homo sapiens, UniProt P27487); test: Plasma DPP-IV inhibitory activity, fluorescence assay (human plasma); format: biochemical; conditions: human plasma (10-fold diluted), Gly-Pro-MCA substrate, room temperature 60 min
T1 construct: from tissue; host or cells: human plasma
T1 sequence (P27487 39-766 limits assumed): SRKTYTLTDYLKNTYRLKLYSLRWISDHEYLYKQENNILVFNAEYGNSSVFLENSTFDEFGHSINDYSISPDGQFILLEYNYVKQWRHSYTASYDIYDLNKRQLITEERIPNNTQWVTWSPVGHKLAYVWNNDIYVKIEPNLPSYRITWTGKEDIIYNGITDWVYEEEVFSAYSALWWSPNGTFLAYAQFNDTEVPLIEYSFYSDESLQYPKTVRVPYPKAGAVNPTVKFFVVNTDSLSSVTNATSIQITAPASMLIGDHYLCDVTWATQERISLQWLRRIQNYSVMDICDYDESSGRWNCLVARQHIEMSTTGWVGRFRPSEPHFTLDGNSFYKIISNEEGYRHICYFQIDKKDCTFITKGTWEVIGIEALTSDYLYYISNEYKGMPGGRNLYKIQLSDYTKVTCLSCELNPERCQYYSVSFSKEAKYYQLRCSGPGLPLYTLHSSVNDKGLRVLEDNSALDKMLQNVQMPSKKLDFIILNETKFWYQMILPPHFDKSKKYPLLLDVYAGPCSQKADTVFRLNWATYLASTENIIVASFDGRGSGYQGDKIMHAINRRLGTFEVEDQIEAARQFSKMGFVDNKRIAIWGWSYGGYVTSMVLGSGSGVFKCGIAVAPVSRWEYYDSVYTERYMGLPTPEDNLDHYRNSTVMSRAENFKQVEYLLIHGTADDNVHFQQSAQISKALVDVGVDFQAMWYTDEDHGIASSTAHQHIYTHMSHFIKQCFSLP
Procedure: (§1) The plasma DPP-IV inhibitory activity of human and rat was measured by the fluorescence assay method.
(§2) The inhibitory rate relative to the solvent addition group was calculated and IC50 values were determined by logistic analysis.

Rat plasma DPP-IV = molecular target: T2, Rat plasma DPP-IV (Rattus norvegicus, UniProt P14740); test: Plasma DPP-IV inhibitory activity, fluorescence assay (rat plasma); format: biochemical; conditions: rat plasma (10-fold diluted), Gly-Pro-MCA substrate, room temperature 60 min
T2 construct: from tissue; host or cells: rat plasma
T2 sequence (P14740 37-767 limits assumed): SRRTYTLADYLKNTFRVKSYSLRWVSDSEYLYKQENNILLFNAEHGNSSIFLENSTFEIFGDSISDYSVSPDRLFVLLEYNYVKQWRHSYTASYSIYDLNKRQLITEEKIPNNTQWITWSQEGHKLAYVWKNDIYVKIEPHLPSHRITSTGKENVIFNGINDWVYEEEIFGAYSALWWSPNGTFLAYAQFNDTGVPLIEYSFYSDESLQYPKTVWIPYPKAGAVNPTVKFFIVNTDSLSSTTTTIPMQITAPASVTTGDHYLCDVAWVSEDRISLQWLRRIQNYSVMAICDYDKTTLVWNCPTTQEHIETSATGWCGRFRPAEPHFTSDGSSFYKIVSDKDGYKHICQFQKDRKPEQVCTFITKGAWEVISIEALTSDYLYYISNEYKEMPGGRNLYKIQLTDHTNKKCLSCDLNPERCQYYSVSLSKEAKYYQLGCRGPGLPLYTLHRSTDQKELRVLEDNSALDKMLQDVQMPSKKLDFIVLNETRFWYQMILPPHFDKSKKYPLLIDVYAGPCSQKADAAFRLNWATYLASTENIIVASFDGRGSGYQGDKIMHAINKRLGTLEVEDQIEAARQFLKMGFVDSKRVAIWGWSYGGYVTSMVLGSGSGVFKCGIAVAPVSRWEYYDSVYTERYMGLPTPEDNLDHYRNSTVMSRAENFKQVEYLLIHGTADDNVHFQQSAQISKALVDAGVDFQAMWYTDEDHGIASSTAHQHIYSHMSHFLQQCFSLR
Procedure: as §1, §2

SMILES	IC50 (Human plasma DPP-IV)	IC50 (Rat plasma DPP-IV)
CCOC(=O)CN(CC(=O)OCC)[C@@H]1CN[C@H](C(=O)N2CCC[C@H]2C#N)C1 [Example 39, (S)-2-cyano-1-{(2S,4S)-4-[N,N-bis(ethoxycarbonylmethyl)amino]-2-pyrrolidinylcarbonyl}pyrrolidine dihydrochloride]	1.1 nM	0.55 nM
O=C(O)c1ccc(N2CCN([C@@H]3CN[C@H](C(=O)N4CCSC4)C3)CC2)nc1 [Example 212, 3-{(2S,4S)-4-[4-(5-carboxy-2-pyridyl)-1-piperazinyl]-2-pyrrolidinylcarbonyl}-1,3-thiazolidine trihydrochloride]	0.45 nM	0.75 nM
O=C([C@@H]1C[C@H](N2CCC(c3nn(CCN4CCOCC4)c(=O)o3)CC2)CN1)N1CCSC1 [Example 296, 3-((2S,4S)-4-{4-[4-(2-morpholinoethyl)-5-oxo-4,5-dihydro-1,3,4-oxadiazol-2-yl]piperidino}-2-pyrrolidinylcarbonyl)-1,3-thiazolidine trihydrochloride]	1.1 nM	1.9 nM
O=C([C@@H]1C[C@H](N2CCN(c3nc4ccc(C(F)(F)F)cc4s3)CC2)CN1)N1CCSC1 [Example 242, 3-{(2S,4S)-4-[4-(6-trofluoromethyl-2-benzothiazolyl)-1-piperazinyl]-2-pyrrolidinylcarbonyl}-1,3-thiazolidine dihydrochloride]	0.33 nM	0.34 nM
N#C[C@@H]1CCCN1C(=O)[C@@H]1C[C@H](Nc2ncccn2)CN1 [Example 24, (S)-2-cyano-1-[(2S,4S)-4-(2-pyrimidinyl)amino-2-pyrrolidinylcarbonyl]pyrrolidine hydrochloride]	0.51 nM	0.64 nM
CN(Cc1cccc(C#N)c1)[C@@H]1CN[C@H](C(=O)N2CCSC2)C1 [Example 99, 3-{(2S,4S)-4-[N-(3-cyanophenylmethyl)-N-methylamino]-2-pyrrolidinylcarbonyl}-1,3-thiazolidine dihydrochloride]	6.8 nM	9.4 nM
N#C[C@@H]1CCCN1C(=O)[C@@H]1C[C@H](Nc2ccc(C(F)(F)F)cn2)CN1 [Example 20, (S)-2-cyano-1-[(2S,4S)-4-(5-trifluoromethyl-2-pyridyl)amino-2-pyrrolidinylcarbonyl]pyrrolidine 2 trifluoroacetate]	0.54 nM	0.41 nM
N#C[C@@H]1CCCN1C(=O)[C@@H]1C[C@H](NCc2ccc([N+](=O)[O-])cc2)CN1 [Example 29, (S)-2-cyano-1-[(2S,4S)-4-(4-nitrophenylmethyl)amino-2-pyrrolidinylcarbonyl]pyrrolidine dihydrochloride]	0.3 nM	0.22 nM
O=C([C@@H]1C[C@H](N2CCC(c3nc4ccc(F)cc4[nH]3)CC2)CN1)N1CCSC1 [Example 303, 3-{(2S,4S)-4-[4-(5-fluoro-2-benzimidazolyl)piperidino]-2-pyrrolidinylcarbonyl}-1,3-thiazolidine trihydrochloride]	0.61 nM	1.1 nM
O=C([C@@H]1C[C@H](N2CCC(c3cc4ccccc4s3)CC2)CN1)N1CCSC1 [Example 143, 3-{(2S,4S)-4-[4-(2-benzo[b]thienyl)piperidino]-2-pyrrolidinylcarbonyl}-1,3-thiazolidine dihydrochloride]	1.5 nM	2.1 nM
O=C([C@@H]1C[C@H](N2CCN(c3ccc([N+](=O)[O-])cn3)CC2)CN1)N1CCCC1 [Example 186, 1-{(2S,4S)-4-[4-(5-nitro-2-pyridyl)-1-piperazinyl]-2-pyrrolidinylcarbonyl}pyrrolidine trihydrochloride]	3.7 nM	4.2 nM
